Data taken from US12263146B2, “Non-linear dosing of mirdametinib” (SpringWorks Therapeutics Inc., priority 2022, dated 2025).

Test system: patients ≥2 and <25 years with brain cancer
Test: Phase I/II trial of single agent mirdametinib in children, adolescents and young adults with brain cancer
Format: in vivo, human
Protocol: Example 1: Phase I/II Evaluation of Single Agent Mirdametinib, a Brain-Penetrant MEK1/2 Inhibitor, for the Treatment of Children, Adolescents, and Young Adults with Brain Cancer A multi-arm […] trial of mirdametinib is to be conducted in patients ≥2 and <25 years with brain cancer. Phase I requires participants have no prior exposure to MEK inhibitors and recurrent/progressive disease with biopsy-proven evidence of MAPK pathway activation. Three escalating dose levels (2 mg/m^2/dose BID, 2.5 mg/m^2/dose BID and 3 mg/m^2/dose BID) are planned using a rolling 6 design. The median age enrolled in the study is 10 years old (3-21).

Structure (SMILES): O=C(NOC[C@H](O)CO)c1ccc(F)c(F)c1Nc1ccc(I)cc1F (single isomer, unassigned) [mirdametinib]
- MEK related retinopathy or cardiopathy (2, 2.5 and 3 mg/m^2/dose BID, patients with brain cancer): No MEK related retinopathy or cardiopathy is observed
- disease progressions (2, 2.5 and 3 mg/m^2/dose BID, patients with recurrent/progressive brain cancer with MAPK pathway activation): No disease progressions
- dose-limiting toxicities (all three dose levels (2, 2.5 and 3 mg/m^2/dose BID), patients with brain cancer, no prior MEK inhibitor): No dose-limiting toxicities
- clinical activity (overall statement) (dosed continuously in patients with brain cancer): clinically promising
